Results taken from PubChem BioAssay (NCI).
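Abbreviation: GI50, concentration required for 50% inhibition of growth. TGI is the concentration that stops growth completely.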

How the values were obtained:
Assay in all cases: NCI anticancer screen, dose series, 384-well format; in the data active means GI50 below about 0.43 µM; inactive means the rest
LOX IMVI melanoma = system: LOX IMVI melanoma
K-562 leukemia = system: K-562 leukemia
BT-549 breast = system: BT-549 breast
KM12 colon = system: KM12 colon
MOLT-4 leukemia = system: MOLT-4 leukemia
OVCAR-3 ovarian = system: OVCAR-3 ovarian
OVCAR-4 ovarian = system: OVCAR-4 ovarian
HOP-62 NSCLC = system: HOP-62 NSCLC
DU-145 prostate = system: DU-145 prostate
COLO 205 colon = system: COLO 205 colon
SF-295 CNS = system: SF-295 CNS
MCF7 breast = system: MCF7 breast
SK-OV-3 ovarian = system: SK-OV-3 ovarian
ACHN renal = system: ACHN renal
SNB-19 CNS = system: SNB-19 CNS
UO-31 renal = system: UO-31 renal
NCI-H23 lung = system: NCI-H23 lung
SK-MEL-28 melanoma = system: SK-MEL-28 melanoma
SF-539 CNS = system: SF-539 CNS
NCI/ADR-RES ovarian = system: NCI/ADR-RES ovarian
NCI-H226 lung = system: NCI-H226 lung
MDA-MB-468 breast = system: MDA-MB-468 breast
UACC-62 melanoma = system: UACC-62 melanoma
CAKI-1 renal = system: CAKI-1 renal
786-0 renal = system: 786-0 renal
MDA-MB-435 melanoma = system: MDA-MB-435 melanoma
HCC-2998 colon = system: HCC-2998 colon
SNB-75 CNS = system: SNB-75 CNS
UACC-257 melanoma = system: UACC-257 melanoma
HT29 colon = system: HT29 colon
RXF 393 renal = system: RXF 393 renal
T-47D breast = system: T-47D breast
SK-MEL-5 melanoma = system: SK-MEL-5 melanoma
SK-MEL-2 melanoma = system: SK-MEL-2 melanoma
TK-10 renal = system: TK-10 renal
PC-3 prostate = system: PC-3 prostate
U251 glioblastoma = system: U251 glioblastoma
MDA-MB-231 breast = system: MDA-MB-231 breast
HCT-15 colon = system: HCT-15 colon
CCRF-CEM leukemia = system: CCRF-CEM leukemia
OVCAR-5 ovarian = system: OVCAR-5 ovarian
SW-620 colon = system: SW-620 colon
RPMI-8226 leukemia = system: RPMI-8226 leukemia
IGROV1 ovarian = system: IGROV1 ovarian
SF-268 CNS = system: SF-268 CNS
HCT-116 colon = system: HCT-116 colon
SN12C renal = system: SN12C renal
HL-60(TB) leukemia = system: HL-60(TB) leukemia
NCI-H522 lung = system: NCI-H522 lung
A498 renal = system: A498 renal
MALME-3M melanoma = system: MALME-3M melanoma
M14 melanoma = system: M14 melanoma
OVCAR-8 ovarian = system: OVCAR-8 ovarian
NCI-H322M lung = system: NCI-H322M lung
A549 NSCLC = system: A549 NSCLC
HS 578T breast = system: HS 578T breast

COc1c(OC[C@H](O)CN2CCOCC2)ccc2c3n(c(=NC(=O)c4cccnc4C)nc12)CCN3
> 100 µM: TGI (LOX IMVI melanoma) | TGI (K-562 leukemia) | TGI (BT-549 breast) | TGI (KM12 colon) | TGI (MOLT-4 leukemia) | TGI (OVCAR-3 ovarian) | TGI (OVCAR-4 ovarian) | TGI (HOP-62 NSCLC) | TGI (DU-145 prostate) | TGI (COLO 205 colon) | TGI (SF-295 CNS) | TGI (MCF7 breast) | TGI (SK-OV-3 ovarian) | TGI (ACHN renal) | TGI (SNB-19 CNS) | TGI (UO-31 renal) | TGI (NCI-H23 lung) | TGI (SK-MEL-28 melanoma) | TGI (SF-539 CNS) | TGI (NCI/ADR-RES ovarian) | TGI (NCI-H226 lung) | TGI (MDA-MB-468 breast) | TGI (UACC-62 melanoma) | TGI (CAKI-1 renal) | TGI (786-0 renal) | TGI (MDA-MB-435 melanoma) | TGI (HCC-2998 colon) | TGI (SNB-75 CNS) | TGI (UACC-257 melanoma) | TGI (HT29 colon) | TGI (RXF 393 renal) | TGI (SK-MEL-5 melanoma) | TGI (SK-MEL-2 melanoma) | TGI (TK-10 renal) | TGI (PC-3 prostate) | TGI (U251 glioblastoma) | TGI (MDA-MB-231 breast) | TGI (HCT-15 colon) | TGI (CCRF-CEM leukemia) | TGI (OVCAR-5 ovarian) | TGI (SW-620 colon) | TGI (RPMI-8226 leukemia) | TGI (IGROV1 ovarian) | TGI (SF-268 CNS) | TGI (HCT-116 colon) | TGI (SN12C renal) | TGI (HL-60(TB) leukemia) | TGI (NCI-H522 lung) | TGI (A498 renal) | TGI (MALME-3M melanoma) | TGI (M14 melanoma) | TGI (OVCAR-8 ovarian) | TGI (NCI-H322M lung) | TGI (A549 NSCLC) | TGI (HS 578T breast)
573 nM: TGI (T-47D breast)
active: GI50 (MOLT-4 leukemia) 160 nM | GI50 (MCF7 breast) 87.9 nM | GI50 (SK-OV-3 ovarian) 413 nM | GI50 (SNB-75 CNS) 124 nM | GI50 (T-47D breast) 44.6 nM | GI50 (IGROV1 ovarian) 111 nM | GI50 (HL-60(TB) leukemia) 14.5 nM
inactive: GI50 (LOX IMVI melanoma) > 100 µM | GI50 (K-562 leukemia) > 100 µM | GI50 (BT-549 breast) 38.6 µM | GI50 (KM12 colon) > 100 µM | GI50 (OVCAR-3 ovarian) > 100 µM | GI50 (OVCAR-4 ovarian) > 100 µM | GI50 (HOP-62 NSCLC) > 100 µM | GI50 (DU-145 prostate) > 100 µM | GI50 (COLO 205 colon) > 100 µM | GI50 (SF-295 CNS) > 100 µM | GI50 (ACHN renal) > 100 µM | GI50 (SNB-19 CNS) > 100 µM | GI50 (UO-31 renal) > 100 µM | GI50 (NCI-H23 lung) > 100 µM | GI50 (SK-MEL-28 melanoma) 55.1 µM | GI50 (SF-539 CNS) > 100 µM | GI50 (NCI/ADR-RES ovarian) > 100 µM | GI50 (NCI-H226 lung) > 100 µM | GI50 (MDA-MB-468 breast) 439 nM | GI50 (UACC-62 melanoma) > 100 µM | GI50 (CAKI-1 renal) > 100 µM | GI50 ([…]-0 renal) > 100 µM | GI50 (MDA-MB-435 melanoma) > 100 µM | GI50 (HCC-2998 colon) > 100 µM | GI50 (UACC-257 melanoma) > 100 µM | GI50 (HT29 colon) > 100 µM | GI50 (RXF 393 renal) > 100 µM | GI50 (SK-MEL-5 melanoma) > 100 µM | GI50 (SK-MEL-2 melanoma) > 100 µM | GI50 (TK-10 renal) 2860 nM | GI50 (PC-3 prostate) 657 nM | GI50 (U251 glioblastoma) > 100 µM | GI50 (MDA-MB-231 breast) > 100 µM | GI50 (HCT-15 colon) > 100 µM | GI50 (CCRF-CEM leukemia) 4.36 µM | GI50 (OVCAR-5 ovarian) > 100 µM | GI50 (SW-620 colon) > 100 µM | GI50 (RPMI-8226 leukemia) > 100 µM | GI50 (SF-268 CNS) > 100 µM | GI50 (HCT-116 colon) > 100 µM | GI50 (SN12C renal) > 100 µM | GI50 (NCI-H522 lung) > 100 µM | GI50 (A498 renal) > 100 µM | GI50 (MALME-3M melanoma) > 100 µM | GI50 (M14 melanoma) > 100 µM | GI50 (OVCAR-8 ovarian) > 100 µM | GI50 (NCI-H322M lung) 67.1 µM | GI50 (A549 NSCLC) > 100 µM | GI50 (HS 578T breast) 3.51 µM
